Key:
[1] = Stability under acidic conditions; settings: for d-amphetamine content released: reflux; for d-amphetamine released: acids; for Hydrolysis: reflux in concentrated HCl
[2] = Oral bioavailability at escalating doses (LC/MS/MS); settings: rat; for AUC(0-inf): in vivo, po; for F (fraction of intact L-lysine-d-amphetamine absorbed): oral
[3] = tested on: rats; experiment: Horizontal locomotor activity after oral administration; assay type: in vivo, Sprague-Dawley rats; settings: for Peak of activity (Counts per 0.2 h) / Time of Last Count Above 200 per 0.2 h / Total Activity Counts / Total Activity Counts Above Baseline: rats, oral gavage 6 mg/kg
[4] = Intranasal bioavailability (LC/MS/MS); settings: rat, in vivo, other: intranasal, 3 mg/kg
[5] = tested on: stimulant abusers; experiment: Abuse liability of intravenous L-lysine-d-amphetamine in stimulant abusers; settings: IV
[6] = tested on: rats; experiment: Locomotor activity after intranasal administration with and without CMC; assay type: in vivo, Sprague-Dawley rats
Excerpt: The CMC drug mixtures were suspended thoroughly before each dose was delivered.

[7] = tested on: anesthetized dog; experiment: Cardiovascular effects following intravenous injection in the anesthetized dog
[8] = tested on: rats; experiment: Locomotor activity after intravenous administration; assay type: in vivo, Sprague-Dawley rats; settings: rat, 1.0 mg/kg
[9] = Serum and brain tissue levels following oral administration (LC/MS/MS); settings: rat, 5 mg/kg d-amphetamine base
[10] = L-lysine-d-amphetamine 50 mg, d-amphetamine 20 mg
[11] = rats, intranasal 1.0 mg/kg, 1 h

CC(Cc1ccccc1)NC(=O)C(N)CCCCN [L-lysine-d-amphetamine, 2,6-diaminohexanoic acid-(1-methyl-2-phenylethyl)-amide]
d-amphetamine content released ([1]; 50% sulfuric acid): 59%
d-amphetamine released ([1]; 90° C.): only a limited amount
d-amphetamine released ([1]; ambient temperature): only a limited amount
d-amphetamine content released ([1]; concentrated hydrochloric acid): 85%
Stability ([1]; reflux in concentrated H2SO4, 2 hours): complete decomposition
Hydrolysis ([1]; 5 hours): 28%
Hydrolysis ([1]; 22 hours): 76%
AUC(0-inf) ([2]; 3 mg/kg): 331 ng·h/mL
AUC(0-inf) ([2]; 6 mg/kg): 1180 ng·h/mL
AUC(0-inf) ([2]; 12 mg/kg): 5170 ng·h/mL
AUC(0-inf) ([2]; 60 mg/kg): 8460 ng·h/mL
F (fraction of intact L-lysine-d-amphetamine absorbed) ([2]; 3 mg/kg): 7.2%
F (fraction of intact L-lysine-d-amphetamine absorbed) ([2]; 6 mg/kg): 12.8%
F (fraction of intact L-lysine-d-amphetamine absorbed) ([2]; 12 mg/kg): 24.6%
F (fraction of intact L-lysine-d-amphetamine absorbed) ([2]; 60 mg/kg): 9.3%
Increase of total HLA activity counts over those induced by d-amphetamine ([3]; rat, oral, 6 mg/kg, three experiments (5, 8, 12 h)): 11-41%
Peak of activity (Counts per 0.2 h) ([3]; 5 h experiment): 318 Counts per 0.2 h
Time of Last Count Above 200 per 0.2 h ([3]; 5 h experiment): 5 h
Total Activity Counts ([3]; 5 h experiment): 6417
Total Activity Counts Above Baseline ([3]; 5 h experiment): 5902
Peak of activity (Counts per 0.2 h) ([3]; 12 h experiment): 256 Counts per 0.2 h
Time of Last Count Above 200 per 0.2 h ([3]; 12 h experiment): 8.6 h
Total Activity Counts ([3]; 12 h experiment): 8423
Total Activity Counts Above Baseline ([3]; 12 h experiment): 7487
concentration at 0 h [4]: 0 ng/mL
Euphoria or amphetamine-like subjective effects ([5]; 50 mg): did not produce euphoria or amphetamine-like subjective effects
Mean maximum response on Subject Liking VAS vs placebo [5, 10]: not greater than placebo
Subjects (of 9) who would take the treatment again [5, 10]: one
Increase in activity over baseline compared to activity for d-amphetamine dosed animals ([6]; rat, intranasal, 1.0 mg/kg): 34%
Percent Amp (activity above baseline relative to Amp) [6, 11]: 35%
Total Activity Counts (1 h) [6, 11]: 408
Total Activity Counts Above Baseline [6, 11]: 237
Increase in mean BP ([7]; dog, IV, approximately 30 minutes after injection): 20-50%
DAP % Change ([7]; iv 0.5 mg/kg, Time 0): 0%
DAP diastolic arterial pressure ([7]; iv 0.5 mg/kg, Time 0): 51 mmHg
LVP % Change ([7]; iv 0.5 mg/kg, Time 0): 0%
LVP left ventricular pressure ([7]; iv 0.5 mg/kg, Time 0): 86 mmHg
MAP % Change ([7]; iv 0.5 mg/kg, Time 0): 0%
MAP mean arterial pressure ([7]; iv 0.5 mg/kg, Time 0): 64 mmHg
SAP % Change ([7]; iv 0.5 mg/kg, Time 0): 0%
SAP systolic arterial pressure ([7]; iv 0.5 mg/kg, Time 0): 84 mmHg
DAP % Change ([7]; iv 0.5 mg/kg, Time 5): 3%
DAP diastolic arterial pressure ([7]; iv 0.5 mg/kg, Time 5): 52 mmHg
LVP % Change ([7]; iv 0.5 mg/kg, Time 5): 2%
LVP left ventricular pressure ([7]; iv 0.5 mg/kg, Time 5): 87 mmHg
MAP % Change ([7]; iv 0.5 mg/kg, Time 5): 3%
MAP mean arterial pressure ([7]; iv 0.5 mg/kg, Time 5): 66 mmHg
SAP % Change ([7]; iv 0.5 mg/kg, Time 5): 4%
SAP systolic arterial pressure ([7]; iv 0.5 mg/kg, Time 5): 87 mmHg
DAP % Change ([7]; iv 0.5 mg/kg, Time 15): 1%
DAP diastolic arterial pressure ([7]; iv 0.5 mg/kg, Time 15): 51 mmHg
LVP % Change ([7]; iv 0.5 mg/kg, Time 15): 11%
LVP left ventricular pressure ([7]; iv 0.5 mg/kg, Time 15): 95 mmHg
MAP % Change ([7]; iv 0.5 mg/kg, Time 15): 5%
MAP mean arterial pressure ([7]; iv 0.5 mg/kg, Time 15): 67 mmHg
SAP % Change ([7]; iv 0.5 mg/kg, Time 15): 11%
SAP systolic arterial pressure ([7]; iv 0.5 mg/kg, Time 15): 93 mmHg
DAP % Change ([7]; iv 0.5 mg/kg, Time 25): 8%
DAP diastolic arterial pressure ([7]; iv 0.5 mg/kg, Time 25): 55 mmHg
LVP % Change ([7]; iv 0.5 mg/kg, Time 25): 22%
LVP left ventricular pressure ([7]; iv 0.5 mg/kg, Time 25): 105 mmHg
MAP % Change ([7]; iv 0.5 mg/kg, Time 25): 15%
MAP mean arterial pressure ([7]; iv 0.5 mg/kg, Time 25): 73 mmHg
SAP % Change ([7]; iv 0.5 mg/kg, Time 25): 25%
SAP systolic arterial pressure ([7]; iv 0.5 mg/kg, Time 25): 104 mmHg
DAP % Change ([7]; iv 0.5 mg/kg, Time 30): 14%
DAP diastolic arterial pressure ([7]; iv 0.5 mg/kg, Time 30): 58 mmHg
LVP % Change ([7]; iv 0.5 mg/kg, Time 30): 26%
LVP left ventricular pressure ([7]; iv 0.5 mg/kg, Time 30): 108 mmHg
MAP % Change ([7]; iv 0.5 mg/kg, Time 30): 21%
MAP mean arterial pressure ([7]; iv 0.5 mg/kg, Time 30): 77 mmHg
SAP % Change ([7]; iv 0.5 mg/kg, Time 30): 28%
SAP systolic arterial pressure ([7]; iv 0.5 mg/kg, Time 30): 107 mmHg
DAP % Change ([7]; iv 1.0 mg/kg, Time 0): 0%
DAP diastolic arterial pressure ([7]; iv 1.0 mg/kg, Time 0): 55 mmHg
LVP % Change ([7]; iv 1.0 mg/kg, Time 0): 0%
LVP left ventricular pressure ([7]; iv 1.0 mg/kg, Time 0): 108 mmHg
MAP % Change ([7]; iv 1.0 mg/kg, Time 0): 0%
MAP mean arterial pressure ([7]; iv 1.0 mg/kg, Time 0): 74 mmHg
SAP % Change ([7]; iv 1.0 mg/kg, Time 0): 0%
SAP systolic arterial pressure ([7]; iv 1.0 mg/kg, Time 0): 105 mmHg
DAP % Change ([7]; iv 1.0 mg/kg, Time 5): 15%
DAP diastolic arterial pressure ([7]; iv 1.0 mg/kg, Time 5): 63 mmHg
LVP % Change ([7]; iv 1.0 mg/kg, Time 5): 11%
LVP left ventricular pressure ([7]; iv 1.0 mg/kg, Time 5): 120 mmHg
MAP % Change ([7]; iv 1.0 mg/kg, Time 5): 15%
MAP mean arterial pressure ([7]; iv 1.0 mg/kg, Time 5): 85 mmHg
SAP % Change ([7]; iv 1.0 mg/kg, Time 5): 15%
SAP systolic arterial pressure ([7]; iv 1.0 mg/kg, Time 5): 121 mmHg
DAP % Change ([7]; iv 1.0 mg/kg, Time 15): 33%
DAP diastolic arterial pressure ([7]; iv 1.0 mg/kg, Time 15): 73 mmHg
LVP % Change ([7]; iv 1.0 mg/kg, Time 15): 29%
LVP left ventricular pressure ([7]; iv 1.0 mg/kg, Time 15): 140 mmHg
MAP % Change ([7]; iv 1.0 mg/kg, Time 15): 35%
MAP mean arterial pressure ([7]; iv 1.0 mg/kg, Time 15): 100 mmHg
SAP % Change ([7]; iv 1.0 mg/kg, Time 15): 35%
SAP systolic arterial pressure ([7]; iv 1.0 mg/kg, Time 15): 142 mmHg
DAP % Change ([7]; iv 1.0 mg/kg, Time 25): 75%
DAP diastolic arterial pressure ([7]; iv 1.0 mg/kg, Time 25): 97 mmHg
LVP % Change ([7]; iv 1.0 mg/kg, Time 25): 50%
LVP left ventricular pressure ([7]; iv 1.0 mg/kg, Time 25): 162 mmHg
MAP % Change ([7]; iv 1.0 mg/kg, Time 25): 68%
MAP mean arterial pressure ([7]; iv 1.0 mg/kg, Time 25): 124 mmHg
SAP % Change ([7]; iv 1.0 mg/kg, Time 25): 55%
SAP systolic arterial pressure ([7]; iv 1.0 mg/kg, Time 25): 163 mmHg
DAP % Change ([7]; iv 1.0 mg/kg, Time 30): 32%
DAP diastolic arterial pressure ([7]; iv 1.0 mg/kg, Time 30): 73 mmHg
LVP % Change ([7]; iv 1.0 mg/kg, Time 30): 33%
LVP left ventricular pressure ([7]; iv 1.0 mg/kg, Time 30): 144 mmHg
MAP % Change ([7]; iv 1.0 mg/kg, Time 30): 32%
MAP mean arterial pressure ([7]; iv 1.0 mg/kg, Time 30): 98 mmHg
SAP % Change ([7]; iv 1.0 mg/kg, Time 30): 28%
SAP systolic arterial pressure ([7]; iv 1.0 mg/kg, Time 30): 134 mmHg
DAP % Change ([7]; iv 5.0 mg/kg, Time 0): 0%
DAP diastolic arterial pressure ([7]; iv 5.0 mg/kg, Time 0): 71 mmHg
LVP % Change ([7]; iv 5.0 mg/kg, Time 0): 0%
LVP left ventricular pressure ([7]; iv 5.0 mg/kg, Time 0): 144 mmHg
MAP % Change ([7]; iv 5.0 mg/kg, Time 0): 0%
MAP mean arterial pressure ([7]; iv 5.0 mg/kg, Time 0): 95 mmHg
SAP % Change ([7]; iv 5.0 mg/kg, Time 0): 0%
SAP systolic arterial pressure ([7]; iv 5.0 mg/kg, Time 0): 132 mmHg
DAP % Change ([7]; iv 5.0 mg/kg, Time 5): 0%
DAP diastolic arterial pressure ([7]; iv 5.0 mg/kg, Time 5): 71 mmHg
LVP % Change ([7]; iv 5.0 mg/kg, Time 5): 5%
LVP left ventricular pressure ([7]; iv 5.0 mg/kg, Time 5): 151 mmHg
MAP % Change ([7]; iv 5.0 mg/kg, Time 5): 4%
MAP mean arterial pressure ([7]; iv 5.0 mg/kg, Time 5): 99 mmHg
SAP % Change ([7]; iv 5.0 mg/kg, Time 5): 7%
SAP systolic arterial pressure ([7]; iv 5.0 mg/kg, Time 5): 142 mmHg
DAP % Change ([7]; iv 5.0 mg/kg, Time 15): 39%
DAP diastolic arterial pressure ([7]; iv 5.0 mg/kg, Time 15): 98 mmHg
LVP % Change ([7]; iv 5.0 mg/kg, Time 15): 28%
LVP left ventricular pressure ([7]; iv 5.0 mg/kg, Time 15): 184 mmHg
MAP % Change ([7]; iv 5.0 mg/kg, Time 15): 37%
MAP mean arterial pressure ([7]; iv 5.0 mg/kg, Time 15): 130 mmHg
SAP % Change ([7]; iv 5.0 mg/kg, Time 15): 33%
SAP systolic arterial pressure ([7]; iv 5.0 mg/kg, Time 15): 176 mmHg
DAP % Change ([7]; iv 5.0 mg/kg, Time 25): −3%
DAP diastolic arterial pressure ([7]; iv 5.0 mg/kg, Time 25): 69 mmHg
LVP % Change ([7]; iv 5.0 mg/kg, Time 25): 11%
LVP left ventricular pressure ([7]; iv 5.0 mg/kg, Time 25): 160 mmHg
MAP % Change ([7]; iv 5.0 mg/kg, Time 25): 1%
MAP mean arterial pressure ([7]; iv 5.0 mg/kg, Time 25): 96 mmHg
SAP % Change ([7]; iv 5.0 mg/kg, Time 25): −5%
SAP systolic arterial pressure ([7]; iv 5.0 mg/kg, Time 25): 126 mmHg
DAP % Change ([7]; iv 5.0 mg/kg, Time 30): −1%
DAP diastolic arterial pressure ([7]; iv 5.0 mg/kg, Time 30): 70 mmHg
LVP % Change ([7]; iv 5.0 mg/kg, Time 30): 13%
LVP left ventricular pressure ([7]; iv 5.0 mg/kg, Time 30): 163 mmHg
MAP % Change ([7]; iv 5.0 mg/kg, Time 30): 4%
MAP mean arterial pressure ([7]; iv 5.0 mg/kg, Time 30): 99 mmHg
SAP % Change ([7]; iv 5.0 mg/kg, Time 30): 0%
SAP systolic arterial pressure ([7]; iv 5.0 mg/kg, Time 30): 132 mmHg
Total Activity Counts (3 h) [8]: 767
Activity above baseline, Percent Amp ([8]; 3 h): 34%
Total Activity Counts Above Baseline ([8]; 3 h): 463
Intact conjugate in brain tissue [9]: not detected
Intact conjugate in serum [9]: present in appreciable amounts
